Several values for one entry are separate records, joined by “and”; a condition that tells them apart may be missing. Equal entries are not always repeated. Toxic doses and inconclusive results are not listed.

22 molecules from PubChem BioAssay AID330 (DTP/NCI, 2004) can be followed below.

For the assay, the system named is P388 leukemia ip, CD2F1 mice, survival T/C. Description: NCI In Vivo Anticancer Drug Screen. Data for tumor model P388 Leukemia (intraperitoneal) in CD2F1 (CDF1) mice. The following applies: endpoint: median survival time, higher = longer survival. The essentials:
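Mice carrying the transplanted tumor received test compound or vehicle. Survival was recorded in each group, and the value is the treated-group measurement divided by that of the vehicle-treated control group.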

Where [1] appears, read: dose: 50.0 mg/kg/injection, schedule: Q01DX009 (ip), vehicle: Klucel (hydroxypropylcellulose) (HPC).
Setting [2] is: dose: 100.0 mg/kg/injection, schedule: Q01DX009 (ip), vehicle: Klucel (hydroxypropylcellulose) (HPC).
[3] abbreviates: dose: 200.0 mg/kg/injection, schedule: Q01DX009 (ip), vehicle: Klucel (hydroxypropylcellulose) (HPC).
Setting [4] is: dose: 50.0 mg/kg/injection, schedule: Q01DX005 (ip), vehicle: saline with Tween-80.
The mark [5] stands for this setting: dose: 100.0 mg/kg/injection, schedule: Q01DX005 (ip), vehicle: saline with Tween-80.
The mark [6] stands for this setting: dose: 200.0 mg/kg/injection, schedule: Q01DX005 (ip), vehicle: saline with Tween-80.
The mark [7] stands for this setting: dose: 25.0 mg/kg/injection, schedule: Q01DX005 (ip), vehicle: saline with Tween-80.
[8] abbreviates: dose: 60.0 mg/kg/injection, schedule: Q01DX005 (ip), vehicle: saline with Tween-80.
The mark [9] stands for this setting: dose: 120.0 mg/kg/injection, schedule: Q01DX005 (ip), vehicle: saline with Tween-80.
Where [10] appears, read: dose: 240.0 mg/kg/injection, schedule: Q01DX005 (ip), vehicle: saline with Tween-80.
Where [11] appears, read: dose: 100.0 mg/kg/injection, schedule: Q04DX003 (ip), vehicle: saline with Tween-80.
Where [12] appears, read: dose: 200.0 mg/kg/injection, schedule: Q04DX003 (ip), vehicle: saline with Tween-80.
Where [13] appears, read: dose: 400.0 mg/kg/injection, schedule: Q04DX003 (ip), vehicle: saline with Tween-80.
Where [14] appears, read: dose: 50.0 mg/kg/injection, schedule: Q01DX009 (ip), vehicle: saline.
The mark [15] stands for this setting: dose: 37.5 mg/kg/injection, schedule: Q01DX009 (ip), vehicle: saline with Tween-80.
Setting [16] is: dose: 75.0 mg/kg/injection, schedule: Q01DX009 (ip), vehicle: saline with Tween-80.

Consider `O=S(=O)(NN=C(c1ccccc1)c1ccccc1)c1ccccc1`, for which the T/C runs as follows: (dose: 25.0 mg/kg/injection, schedule: Q01DX009 (ip), vehicle: Klucel (hydroxypropylcellulose) (HPC)) 99 % of control; under setting [1], 93 % of control; under setting [2], 101 % of control; under setting [3], 106 % of control; (dose: 400.0 mg/kg/injection, schedule: Q01DX009 (ip), vehicle: Klucel (hydroxypropylcellulose) (HPC)) 90 % of control.

`CC(C)CNC12CN3CN(CN(C3)C1)C2`: the T/C is 98 % of control (dose: 100.0 mg/kg/injection, schedule: Q04DX003 (ip), vehicle: saline); 90 % of control (dose: 200.0 mg/kg/injection, schedule: Q04DX003 (ip), vehicle: saline); 92 % of control (dose: 400.0 mg/kg/injection, schedule: Q04DX003 (ip), vehicle: saline).

On to `Nc1nc(N)c(C(=O)SCc2ccccc2)nc1Cl`, for which the T/C runs as follows: under setting [1], 107 % of control; under setting [2], 95 % of control; under setting [3], 91 % of control.

Take `C=C1C(=O)OC(CCCCCCCCCCCCC)C1C(=O)O` (centres undefined): the T/C is 99 % of control (dose: 0.25 mg/kg/injection, schedule: Q01DX009 (ip), vehicle: saline with Tween-80); 101 % of control (dose: 0.5 mg/kg/injection, schedule: Q01DX009 (ip), vehicle: saline with Tween-80); 100 % of control (dose: 1.0 mg/kg/injection, schedule: Q01DX009 (ip), vehicle: saline with Tween-80).

With `COc1cccc(/C=N/NP(=S)(Oc2ccc(C(C)(C)C)cc2)Oc2ccc(C(C)(C)C)cc2)c1OC`, the T/C is 98 % of control under setting [4], 95 % of control under setting [5] and 100 % of control under setting [6].

Regarding `O=C1c2ccccc2C(Cl)(c2ccc(Cl)cc2)c2ccc(Cl)cc21` (centres undefined), under setting [7], the T/C was 107 % of control.

Take `O=c1c2ccc(Cl)cc2nc2nc(-c3ccccc3)c3cc(Cl)ccc3n12`: the T/C is, setting by setting: under setting [8], 107 % of control; under setting [9], 106 % of control; under setting [10], 97 % of control.

As to `O=C(O)c1c[nH]c2ccc([N+](=O)[O-])cc2c1=O`, the T/C is, setting by setting: (dose: 0.63 mg/kg/injection, schedule: Q01DX009 (ip), vehicle: Klucel (hydroxypropylcellulose) (HPC)) 110 % of control; (dose: 1.25 mg/kg/injection, schedule: Q01DX009 (ip), vehicle: Klucel (hydroxypropylcellulose) (HPC)) 94 % of control; (dose: 2.5 mg/kg/injection, schedule: Q01DX009 (ip), vehicle: Klucel (hydroxypropylcellulose) (HPC)) 101 % of control; (dose: 5.0 mg/kg/injection, schedule: Q01DX009 (ip), vehicle: Klucel (hydroxypropylcellulose) (HPC)) 104 % of control; (dose: 10.0 mg/kg/injection, schedule: Q01DX009 (ip), vehicle: Klucel (hydroxypropylcellulose) (HPC)) 100 % of control; (dose: 90.0 mg/kg/injection, schedule: Q01DX009 (ip), vehicle: Klucel (hydroxypropylcellulose) (HPC)) 86 % of control.

For the molecule `CCN(CC)CCOCc1ccc2c(c1)OCO2`, the T/C runs as follows: under setting [7], 113 % of control; under setting [4], 113 % of control; under setting [5], 111 % of control.

Take `O=C(NN1C(=O)CS(=O)(=O)C1c1ccc(Cl)cc1Cl)c1ccncc1` (centres undefined): the T/C under setting [4] is 100 % of control, the T/C under setting [5] is 100 % of control and the T/C under setting [6] is 102 % of control.

On to `NCC(=O)O.[Cl-].[Cl-].[Cl-].[Cl-].[Pt+2]`, for which the T/C (dose: 12.5 mg/kg/injection, schedule: Q01DX009 (ip), vehicle: saline) is 124 % of control; the T/C (dose: 14.7 mg/kg/injection, schedule: Q01DX009 (ip), vehicle: saline) is 108 % of control; the T/C (dose: 22.0 mg/kg/injection, schedule: Q01DX009 (ip), vehicle: saline) is 108 % of control.

Take `CCOC(=O)/C(C#N)=C/C=C1/C=CC=CN1N=C(SC)SC`: the T/C was 95 % of control (dose: 100.0 mg/kg/injection, schedule: Q01DX001 (ip), vehicle: saline with Tween-80); 86 % of control (dose: 200.0 mg/kg/injection, schedule: Q01DX001 (ip), vehicle: saline with Tween-80); 87 % of control (dose: 400.0 mg/kg/injection, schedule: Q01DX001 (ip), vehicle: saline with Tween-80).

For the molecule `NC(=O)NC1CCCCCCC1`, the T/C was 100 % of control under setting [11], 109 % of control under setting [12] and 95 % of control under setting [13].

As for `O=c1[nH]c2ccccc2[nH]c1=O`, the T/C under setting [14] is 100 % of control; the T/C (dose: 100.0 mg/kg/injection, schedule: Q01DX009 (ip), vehicle: saline with Tween-80) is 94 % of control; the T/C (dose: 200.0 mg/kg/injection, schedule: Q01DX009 (ip), vehicle: saline with Tween-80) was 92 % of control; the T/C (dose: 200.0 mg/kg/injection, schedule: Q01DX009 (ip), vehicle: saline) is 100 % of control and 97 % of control; the T/C (dose: 400.0 mg/kg/injection, schedule: Q01DX009 (ip), vehicle: saline) was 88 % of control.

As for `COc1ccc2nc(N/N=C(/c3ccccc3)c3ccccn3)cc(C)c2c1`, the T/C was 107 % of control under setting [4], 100 % of control under setting [5] and 100 % of control under setting [6].

Consider `CN1C(=O)/C(=[N+](/[O-])c2ccccc2-c2ccccc2)c2ccccc21`, for which the T/C by setting is: (dose: 100.0 mg/kg/injection, schedule: Q04DX002 (ip), vehicle: saline with Tween-80) 99 % of control; (dose: 200.0 mg/kg/injection, schedule: Q04DX002 (ip), vehicle: saline with Tween-80) 100 % of control; (dose: 400.0 mg/kg/injection, schedule: Q04DX002 (ip), vehicle: saline with Tween-80) 97 % of control.

On to `CCOP(=O)(N1CC1(C)C)N1CC1(C)C` (centres undefined), for which the T/C was 109 % of control (dose: 5.0 mg/kg/injection, schedule: Q01DX009 (ip), vehicle: saline); 159 % of control (dose: 20.0 mg/kg/injection, schedule: Q01DX009 (ip), vehicle: saline); 194 % of control (dose: 30.0 mg/kg/injection, schedule: Q01DX009 (ip), vehicle: saline); 252 % of control under setting [14].

As to `O=c1cc[nH]c(=S)[nH]1.[Cu+2]`, the T/C reads like this: (dose: 1.56 mg/kg/injection, schedule: Q01DX009 (ip), vehicle: DMSO) 100 % of control; (dose: 3.12 mg/kg/injection, schedule: Q01DX009 (ip), vehicle: DMSO) 99 % of control; (dose: 6.25 mg/kg/injection, schedule: Q01DX009 (ip), vehicle: DMSO) 86 % of control; (dose: 12.5 mg/kg/injection, schedule: Q01DX009 (ip), vehicle: DMSO) 100 % of control.

Turning to `CN1CCC(C(=O)O)(c2ccccc2)CC1`, the T/C is 100 % of control (dose: 9.4 mg/kg/injection, schedule: Q01DX009 (ip), vehicle: saline with Tween-80); 98 % of control (dose: 18.8 mg/kg/injection, schedule: Q01DX009 (ip), vehicle: saline with Tween-80); 97 % of control under setting [15]; 111 % of control under setting [16].

In the case of `C/C(=C/C(=O)O)c1ccc([N+](=O)[O-])cc1`, the T/C runs as follows: under setting [8], 94 % of control; under setting [9], 100 % of control; under setting [10], 101 % of control.

Regarding `O=C(O)c1cc(I)cc(I)c1`, the T/C reads like this: under setting [15], 99 % of control; under setting [16], 104 % of control; under setting [11], 98 % of control; (dose: 150.0 mg/kg/injection, schedule: Q01DX009 (ip), vehicle: saline with Tween-80) 95 % of control; under setting [12], 96 % of control; under setting [13], 96 % of control.

Take `CC(=O)Oc1ccccc1C(=O)OCC(=O)c1ccc2c(c1)Nc1ccccc1S2`: the T/C runs as follows: (dose: 1.56 mg/kg/injection, schedule: Q01DX001 (ip), vehicle: Klucel (hydroxypropylcellulose) (HPC)) 93 % of control; (dose: 3.13 mg/kg/injection, schedule: Q01DX001 (ip), vehicle: Klucel (hydroxypropylcellulose) (HPC)) 95 % of control; (dose: 6.25 mg/kg/injection, schedule: Q01DX001 (ip), vehicle: Klucel (hydroxypropylcellulose) (HPC)) 90 % of control; (dose: 50.0 mg/kg/injection, schedule: Q01DX001 (ip), vehicle: Klucel (hydroxypropylcellulose) (HPC)) 87 % of control; (dose: 200.0 mg/kg/injection, schedule: Q01DX001 (ip), vehicle: Klucel (hydroxypropylcellulose) (HPC)) 94 % of control.
